Data on one compound can be found in publication PMC10300026, “Discovery of an OTUD3 inhibitor for the treatment of non-small cell lung cancer” (Cell Death & Disease, 2023).

This assay deals with T1, OTUD3 (Homo sapiens, UniProt Q5T2D3).
T1 construct: OTUD3 OTU (aa 52-209)
T1 sequence (Q5T2D3 52-209): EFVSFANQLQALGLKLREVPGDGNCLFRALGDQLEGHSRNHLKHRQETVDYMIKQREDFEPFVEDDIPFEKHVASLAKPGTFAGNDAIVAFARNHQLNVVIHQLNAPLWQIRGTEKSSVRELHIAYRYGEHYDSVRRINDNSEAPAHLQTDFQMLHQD
The experiment in a line: SPR (Biacore T200, CM5 chip); supported by in vitro K48/K63 di-ubiquitin cleavage inhibition. The format is binding. A general note: Surface plasmon resonance follows binding to a sensor surface in real time, without labels.

Turning to `O=C(Nc1cccc(-c2nc3ccccc3[nH]2)c1)c1ccc(S(=O)(=O)N2CCc3ccccc3C2)cc1` [compound 16, 4-[dioxo(1,2,3,4-tetrahydroisoquinolin-2-yl)-λ6-sulfanyl]-N-[3-(1H-benzo[d]imidazol-2-yl)phenyl]benzamide], the affinity, expressed as Kd, was 320 nM.
